Entries after “also recorded” stand apart in the source; their conditions may differ.

Data set [1] deals with survivin promoter in SW480 cells. Kind of data set: Survivin luciferase reporter in SW480 cells. In kind it is cell-based. To be noted: for IC50: Homo sapiens, SW480, Table 10, prodrug compounds, reporter gene assay Survivin, read-out: RGA, Survivin IC50.
The subject of data set [2] is TCF4/β-catenin transcription (TOPFlash) in SW480 cells. Kind of data set: Reporter gene assay (TOPFlash luciferase). In kind it is cell-based. To be noted: Homo sapiens, SW480, Table 10; prodrug compounds, reporter gene assay TopF; read-out: RGA, TopF IC50. The gist of the method:
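SW480 cells transiently co-transfected with TOPFlash and pRL-null (4:1 µg) using Superfect, then reseeded at 3×10^4 cells/well and incubated overnight at 37 °C. Compound treatment lasted 24 h before luciferase read-out.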
In general terms: A reporter such as luciferase makes a cellular process visible.

The test system of data set [3] is HCT116 cells. Nature of the data set: MTS cytotoxicity test. In kind it is cell-based. As to conditions: Homo sapiens, HCT-116, Table 10, prodrug compounds, 24 hours treatment, read-out: MTS, HCT116 (uM) LD50. How it is done:
(§1) SW480 or HCT116 cells were placed into 96 well microplate (10^4cells/well) and incubated for 24 hours at 37° C. The cells were treated with TCF4 compound at various concentrations for 24 hours. 20 μl of MTS solution (Promega) was added into each well and incubated for 2 hours at 37° C. Cell viability was measured by reading the absorbance at 490 nm using microplate reader (Molecular Device) and cytotoxicity of a compound at each concentration was calculated.
(In general: Tetrazolium assays rely on reduction of a dye to a coloured formazan, in cell work by metabolically active cells.)

The subject of data set [4] is SW480 cells. Kind of data set: MTS cytotoxicity test. In kind it is cell-based. To be noted: Homo sapiens, Table 10, prodrug compounds, 24 hours treatment, read-out: MTS, SW480 (uM) LD50. How it is done: as §1
For data set [5], the system named is HCT116 cells. Kind of data set: Growth inhibition assay (MTS). In kind it is cell-based. To be noted: Homo sapiens, HCT-116; Table 10; prodrug compounds, HCT116 cells, growth inhibition; read-out: MTS, HCT116 (uM) GI50. The gist of the method: (§2)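 Cells seeded at 10^4 per well, grown 24 h at 37° C, then exposed to compound at various concentrations for 48 hours. MTS added for 2 h; absorbance at 490 nm gave viability, with cytotoxicity calculated per concentration against pre-treatment reading.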

Data set [6] deals with SW480 cells. Nature of the data set: Growth inhibition assay (MTS). In kind it is cell-based. As to conditions: Homo sapiens; Table 10; prodrug compounds, SW480 cells, growth inhibition; read-out: MTS, SW480 (uM) GI50. The gist of the method: as §2
The test system of data set [7] is SW480 cells. Nature of the data set: Soft agar assay, Compound A with 5-FU. In kind it is cell-based. To be noted: for LD50, soft agar assay: 8 days. How it is done: Compound A solution and upper layer solution containing agarose were mixed, and SW480 cells were added and solidified. Plates were incubated 37° C. at CO2 incubator for 8 days after solidification at room temperature for 30 min, and colonies were counted under microscope (FIG. 19).

The test system of data set [8] is min mice (polyp formed in small intestine and colon). Nature of the data set: Min mouse model. In kind it is in vivo. To be noted: about 300 mpk. How it is done: Selected compounds of the present invention (Compound B and Compound C) were evaluated in the min mouse model to evaluate their efficacy as anti-cancer agents.
The min mouse model is a widely used model to test for this type of efficacy. The numbers of polyp formed in small intestine and colon of these mice after various treatments were measured (Table 7).

For data set [9], the system named is HUVEC. Nature of the data set: Tube formation assay (In Vitro Angiogenesis Assay Kit). In kind it is cell-based. As to conditions: 0.1-10 μM, 12 h. How it is done:
Tube formation assay was performed using an In Vitro Angiogenesis Assay Kit (Chemicon International, Inc., Temecula, Calif., USA). Briefly, solid gels were prepared according to the manufacturer's manual on a 96-well tissue culture plate. HUVEC (1×10^5 cells/ml) in HuMedia EG-2 medium containing […] were seeded 100 μl per well onto the surface of the solid gel, ECMatrix™. The cells were incubated with vehicle control, Compound E at 0.1 μM, 0.3 μm, 1.0 μM, 3 μM, and 10 μM, or Fumagilin at 10 μM for 12 h at 37° C. in a CO2 incubator. Tube formation was observed under an inverted light microscope at ×100 magnification. Microscopic fields were photographed with a digital camera.

In data set [10] the test system is Survivin. Nature of the data set: Effect on survivin expression (Table 9). In kind it is cell-based. An excerpt: (§3) The effects of various compounds having general formula (I) on survivin and TCF4 expression were characterized.
The test system of data set [11] is TCF4. Nature of the data set: Effect on TCF4 expression (Table 9). In kind it is cell-based.
From the text: as §3

On to `CN1CC(=O)N2[C@@H](Cc3ccc(OP(=O)(O)O)cc3)C(=O)N(Cc3cccc4ccccc34)C[C@@H]2N1C(=O)NCc1ccccc1` [Compound 2], for which the IC50 came to 5.7 µM in [1], 3.5 µM in [2], 23.2 µM in [3] and 8.2 µM in data set [4]. Further, the GI50 in [5] was determined as 6.6 µM; in data set [6], 3.1 µM.

As for `CCCN1CC(=O)N2[C@@H](Cc3ccc(OP(=O)(O)O)cc3)C(=O)N(Cc3cccc4cccnc34)C[C@@H]2N1C(=O)NCc1ccccc1` [Compound 10], the IC50 in [1] came to 1.7 µM; in data set [2], 2.8 µM; in data set [3], 7 µM; in data set [4], 0.4 µM. Further, the GI50 in [5] came to 0.8 µM; in [6], 0.9 µM.

Take `C=CCN1CC(=O)N2[C@@H](Cc3ccc(OP(=O)(O)O)cc3)C(=O)N(Cc3cccc4c3N(C)CCO4)C[C@@H]2N1C(=O)NCc1ccccc1` [Compound 12]: the IC50 was 0.7 µM in data set [1], 1 µM in data set [2], 19.3 µM in data set [3] and above 50 µM in data set [4]. In addition, the GI50 in data set [5] was 1.2 µM; in data set [6] it was 1 µM.

As for `CN(C)c1cc(CN2C[C@H]3N(C(=O)CN(C)N3C(=O)NCc3ccccc3)[C@@H](Cc3ccc(OP(=O)(O)O)cc3)C2=O)ccc1Cl` [Compound 13], the IC50 amounted to 0.9 µM in data set [1], 1.8 µM in data set [2], 20 µM in [3] and 21.1 µM in data set [4]. Besides, the figures for the GI50 in data set [5] and in data set [6] were 1.7 µM and 2.3 µM, respectively.

Consider `CN1CC(=O)N2[C@@H](Cc3ccc(O)cc3)C(=O)N(Cc3cccc4ccccc34)C[C@@H]2N1C(=O)NCc1ccccc1` [Compound A], for which the “synergy with 5-FU in soft agar assay” value in [7] is recorded as “synergism of anti-cancer activity; also recorded: synergy”. Also, the “LD50, soft agar assay” value came to 76 µM in [7] (in combination with 0 μM 5-FU), 30 µM in [7] (in combination with 1 μM 5-FU) and 2 µM in data set [7] (in combination with 4 μM 5-FU). Further, in [1] (SW480 cells, various concentrations), the “survivin luciferase reporter activity” value was “inhibit expression of survivin; also recorded: inhibit the activity of a survivin luciferase reporter”.

In the case of `CN1CC(=O)N2[C@@H](Cc3ccc(OP(=O)(O)O)cc3)C(=O)N(Cc3cccc4cccnc34)C[C@@H]2N1C(=O)NCc1ccccc1` [Compound 9], the IC50 in [1] is 6 µM; in [2], 9.6 µM; in data set [3], above 50 µM; in data set [4], above 50 µM. The GI50 in [5] amounted to 14.7 µM; in data set [6] it was 7.6 µM.

As to `CN1CC(=O)N2[C@@H](Cc3ccc(OP(=O)(O)O)cc3)C(=O)N(Cc3ccc(F)cc3F)C[C@@H]2N1C(=O)NCc1ccccc1` [Compound 4], the IC50 in data set [1] is 6.5 µM; in [2], 7.3 µM; in [3], 49.3 µM; in data set [4], above 50 µM. Also, the figures for the GI50 in data set [5] and in data set [6] were 11.4 µM and 6.9 µM, respectively.

Take `C=CCN1CC(=O)N2[C@@H](Cc3ccc(OP(=O)(O)O)cc3)C(=O)N(Cc3cccc4cccnc34)C[C@@H]2N1C(=O)NCc1ccccc1` [Compound 6]: the IC50 in [1] was determined as 0.1 µM; in data set [2], 0.8 µM; in data set [3], 6.4 µM; in data set [4], 9.2 µM. For the same compound, the GI50 in [5] amounted to 0.4 µM; in [6] it was 0.5 µM.

Take `CN(C)c1cc(F)ccc1CN1C[C@H]2N(C(=O)CN(C)N2C(=O)NCc2ccccc2)[C@@H](Cc2ccc(OP(=O)(O)O)cc2)C1=O` [Compound 3]: the IC50 is 11.5 µM in [2], 41.9 µM in [3] and above 50 µM in data set [4]. For the same compound, the GI50 in [5] came out at 3.1 µM; in [6] it was 3 µM.

`CN1CC(=O)N2[C@@H](Cc3ccc(OP(=O)(O)O)cc3)C(=O)N(Cc3cccc4cnn(C)c34)C[C@@H]2N1C(=O)NCc1ccccc1` [Compound 5]: the IC50 in [2] was 26 µM; in [3], above 50 µM; in data set [4], 34 µM. Besides, the GI50 worked out at 16.5 µM in data set [5] and 5.2 µM in data set [6].

Take `CN1CC(=O)N2[C@@H](Cc3ccc(OP(=O)(O)O)cc3)C(=O)N(Cc3ccc4ncsc4c3)C[C@@H]2N1C(=O)NCc1ccccc1` [Compound 11]: the IC50 is 6.7 µM in data set [1], 10.3 µM in [2], above 50 µM in data set [3] and above 50 µM in [4]. Besides, the GI50 in data set [5] worked out at 6.3 µM; in data set [6], 6.5 µM.

On to `CN1CC(=O)N2[C@@H](Cc3ccc(O)cc3)C(=O)N(Cc3cccc4cccnc34)C[C@@H]2N1C(=O)NCc1ccccc1` [Compound B], for which the “number of polyp compared to vehicle control mice” value in [8] is “reduce the number of polyp in min mice”.

On to `C=CCN1CC(=O)N2[C@@H](Cc3ccc(OP(=O)(O)O)cc3)C(=O)N(Cc3ccc(Cl)c4cccnc34)C[C@@H]2N1C(=O)NCc1ccccc1` [Compound 7], for which the IC50 stood at 1 µM in data set [1], 2.3 µM in [2], 12 µM in data set [3] and 12.9 µM in data set [4]. Further, the GI50 in data set [5] amounted to 1.8 µM; in [6], 2.2 µM.

Take `C=CCN1CC(=O)N2[C@@H](Cc3ccc(OP(=O)(O)O)cc3)C(=O)N(Cc3ccc(F)cc3F)C[C@@H]2N1C(=O)NCc1ccccc1` [Compound 8]: the IC50 in [1] came out at 0.9 µM; in data set [2], 1.4 µM; in data set [3], 23.2 µM; in data set [4], 21.6 µM. The results for the GI50 in data set [5] and in data set [6] were 1.9 µM and 2.1 µM, respectively.

`C=CCN1CC(=O)N2[C@@H](Cc3ccc(O)cc3)C(=O)N(Cc3ccccc3)C[C@@H]2N1C(=O)NCc1ccccc1` [Compound E]: in [9], the tube formation result is reported as “inhibited tube formation in a dose-dependent manner”.

As to `CN(C)c1cc(F)c(F)cc1CN1C[C@H]2N(C(=O)CN(C)N2C(=O)NCc2ccccc2)[C@@H](Cc2ccc(OP(=O)(O)O)cc2)C1=O` [Compound 14], the IC50 in data set [1] amounted to 1.2 µM; in data set [2], 1.7 µM; in data set [3] it was 16 µM; in [4], 21.1 µM. Further, the GI50 in [5] was found to be 2.1 µM; in data set [6] it was 2.3 µM.

Take `CCN(CC)c1cccc(CN2C[C@@H]3N(C(=O)CN(C)N3C(=O)NCc3ccccc3)[C@@H](Cc3ccc(O)cc3)C2=O)c1`: in data set [10], the inhibition at 5 µM stood at 0% and the inhibition at 25 µM was found to be 77%. The compound also showed an IC50 in data set [11] of 3.5 ± 0.3 µM.

With `CN1CC(=O)N2[C@@H](Cc3ccc(O)cc3)C(=O)N(Cc3cccc4ccccc34)C[C@@]2(C)N1C(=O)NCc1ccccc1`, in [10], testing at 5 µM gave an inhibition of 100% and the inhibition at 25 µM was determined as 99%. The compound also yielded an IC50 in data set [11] of around 2 µM.

As a reminder, the GI50 is the concentration that inhibits growth by half. In general, inhibition refers to how much of the control response was suppressed.

For the origin of these results see patent US7671054B1, “Reverse-turn mimetics and method relating thereto” (Choongwae Pharma Corporation, priority 2001, dated 2010).
